Laboratory results reported in patent US20190284635A1, “METHOD FOR THE PROGNOSIS AND/OR TREATMENT OF ACUTE PROMYELOCYTIC LEUKEMIA” (EPI-C S.R.L., priority 2016, published 2019).

What was measured:
[1] = tested on: NB4 cells; test: Combination of ABT-737 with MC2884, pre-G1 cells; format: cell-based, human; conditions: ABT-737 with addition of MC2884 at concentrations that alone induced little apoptosis
Method: For cell cycle analyses, the cells were plated (2×10^5 cells/mL) and after stimulation (performed as indicated in the text) were harvested, centrifuged at 1200 rpm for 5 minutes and resuspended in 500 μL of a hypotonic solution containing 1×PBS, Sodium Citrate 0.1%, 0.1% NP-40, RNAase A and 50 mg/mL Propidium Iodide (PI) (a dye that intercalates between the DNA bases, marking the DNA content in the cells and emitting a fluorescent signal that enables the analysis). After 30' at room temperature (RT) in the dark, samples were acquired by FACS-Calibur (BD Bioscences, San Jose, Calif., USA) using CellQuest software (BD Biosciences). The percentage in different phases of the cell cycle was determined by ModFit LT V3 software (Verity). All experiments were performed in triplicate.

[2] = tested on: APL-Rs (pt#7 and 8) blasts; test: Cell death in ex vivo APL-R blasts; format: cell-based, human; conditions: pt#7 and 8, 24 h
Method: Blasts cells were purified by the Ficoll-Hypaque gradient separation method (GE Healthcare). RNA was obtained by using TRIzol (Life Technologies) according to the manufacturer's recommendations. Isolation of genomic DNA has complied the FlexiGene DNA protocol (Qiagen).
To further strengthen our findings in primary human cells, apoptosis was evaluated in 6 AML patient blasts (FIG. 10C).

[3] = target: GCN5 (Homo sapiens, UniProt Q92830); test: HAT in vitro assay, GCN5; format: biochemical; conditions: substrate Histone H3; 3 μM Acetyl-CoA; 10-dose IC50 mode; read-out: IC50 GCN5 acetyltransferase
Method: (§1) MC2884 activity was also tested in vitro and IC50 was calculated as indicated in the scheme. […] Reactions were carried out at 3 μM Acetyl-CoA. Empty cells indicate no inhibition or compound activity that could not be fit to an IC50 curve.

[4] = target: pCAF (Homo sapiens, UniProt Q92831); test: HAT in vitro assay, pCAF; format: biochemical; conditions: substrate Histone H3; 3 μM Acetyl-CoA; 10-dose IC50 mode; read-out: IC50 pCAF acetyltransferase
Method: as §1

[5] = target: CBP (Homo sapiens, UniProt Q92793); test: HAT in vitro assay, CBP; format: biochemical; conditions: substrate Histone H3; 3 μM Acetyl-CoA; 10-dose IC50 mode; read-out: IC50 CBP acetyltransferase
Method: as §1

[6] = target: KAT5 (Homo sapiens, UniProt Q92993); test: HAT in vitro assay, KAT5; format: biochemical; conditions: substrate Histone H2A; 3 μM Acetyl-CoA; 10-dose IC50 mode; read-out: IC50 KAT5 acetyltransferase
Method: as §1

[7] = tested on: NB4 cells; test: Cell death induction in NB4 cells; format: cell-based, human; conditions: for cytotoxicity at 3 µM: Homo sapiens, NB-4, 30 h; for % Cell death NB4 cells: 3 μM, 30 h
Method: (§2) For cell cycle analyses, the cells were plated (2×10^5 cells/mL) and after stimulation (performed as indicated in the text) were harvested, centrifuged at 1200 rpm for 5 minutes and resuspended in 500 μL of a hypotonic solution containing 1×PBS, Sodium Citrate 0.1%, 0.1% NP-40, RNAase A and […] Propidium Iodide (PI) (a dye that intercalates between the DNA bases, marking the DNA content in the cells and emitting a fluorescent signal that enables the analysis). After 30′ at room temperature (RT) in the dark, samples were acquired by FACS-Calibur (BD Bioscences, San Jose, Calif., USA) using CellQuest software (BD Biosciences). The percentage in different phases of the cell cycle was determined by ModFit LT V3 software (Verity). All experiments were performed in triplicate.
When tested in leukemia NB4 cells at 3 μM for 30 h, MC2884 induced 52.1% cell death. Some MC2884 analogues have been tested to obtain SAR data (Table 8).

[8] = Stability of MC2884 in cell culture medium (DMEM, RP-HPLC); format: physicochemical; conditions: 50 μM in DMEM
Method: The compound was dissolved in DMEM at 50 μM and its concentration was measured by RP-HPLC using a ONYX 50×2 mm ID C18 column operating at 600 μL/min. The gradient applied was from 1% solvent B to 70% solvent B in 10 minutes. Solvent A was water with added 0.1% trifluoroacetic acid (TFA) and solvent B was acetonitrile with added 0.1% TFA. The eluate was monitored using a diode array detector with wavelengths set between 200-320 nm. The compound was eluted at 11.1 min. Peak integration was carried out on the chromatogram extracted at […], which is one of the compound absorbance maxima. A calibration curve was built by injecting solutions of the compound in DMSO at concentrations ranging between 1.5 μM and 200 μM. After incubation in DMEM compound concentration was determined at time points ranging between 0 and 72 hrs. As shown, half of compound was degraded after 10h. At 72 hrs it was fully degraded under these conditions.

[9] = Mouse terminal IV PK study; format: in vivo; conditions: 2 mg/kg, male CD1 mice, plasma
Method: (§3) Compound was administered both intravenously and intraperitoneally to mice. Blood samples were collected at 8 time points over 24 hr and plasma analysed by LC-MS/MS to determine the concentration of compound.
(§4) The plasma time concentration profile was calculated with the main PK parameters (Co, AUClast, t, VD, and CL).
For iv dosing. Compound was dissolved at 0.4 mg/mL. This provided a dose of 2 mg free base material/kg when administered iv in a 5 mL/kg dosing volume.
Compound MC2884 was given iv via the lateral tail vein at a dose of 2 mg/kg to a group of 24 normally fed male CD1 mice in a 5 mL/kg injection volume. Terminal blood samples (>230 μL) were taken under CO2 from groups of 3 mice at each of 8 time-points post dose (0.083, 0.25, 0.5, 1, 2, 4, 8 and 24 h) and placed into heparinized tubes. Samples were placed on ice for no longer than 30 min before centrifugation (10,000 rpm×3 min). Plasma samples (>100 μL) were collected into fresh tubes and frozen on dry ice. Number of plasma samples=24. Consistent IV profiles were obtained, with little variability across the time-points (the average profile is shown in the second spreadsheet). […] FIG. 17-18 display results for IV-IP administration of MC2884 in normal mice.

[10] = Mouse terminal IP PK study; format: in vivo, male CD1 mice; conditions: plasma, 2 mg/kg
Method: as §3, §4
For ip dosing. After formulation assessment, MC2884 was dissolved at 0.2 mg/mL. This provided a dose of 2 mg free base material/kg when administered ip in a 10 mL/kg dosing volume.
Compound MC2884 was given ip at a dose of 2 mg/kg to a group of 24 normally fed male CD1 mice in a 10 mL/kg injection volume. Terminal blood samples (>230 μL) were taken under CO2 from groups of 3 mice at each of 8 time-points post dose (0.083, 0.25, 0.5, 1, 2, 4, 8 and 24 h) and placed into heparinized tubes. Samples were placed on ice for no longer than 30 min before centrifugation (10,000 rpm×3 min). Plasma samples (>100 μL) were collected into fresh tubes and frozen on dry ice. All samples were stored at −20° C. Number of plasma samples=24. FIG. 17-18 display results for IV-IP administration of MC2884 in normal mice

[11] = target: T1, CYP3A4 (Homo sapiens, UniProt P08684); test: Cytochrome P450 inhibition, CYP3A4, human liver microsomes; format: in vitro ADME; conditions: at 25 μM, probe midazolam
T1 construct: from tissue; host or cells: human liver microsomes

[12] = tested on: immortalized non-cancer cell systems; test: Cytotoxicity on immortalized non-cancer cells; conditions: at the dose effective on cancer cells
Method: Colorimetric exclusion: cells (2×10^5 cells/mL) were plated in multiwells and in triplicate.

[13] = tested on: SHSY5Y cells; test: Cell death induction in SHSY5Y cells; format: cell-based; conditions: 48 h; for cytotoxicity at 3 µM: Homo sapiens, SH-SY5Y; for cell death induction in SHSY5Y cells, in words, relative to MC2884: 3 μM
Method: as §2
When tested in neuroblastoma SHSY5Y cells at 3 μM for 48 h, MC2884 and its analogues furnished similar trend of death induction as in NB4 cells (Table 7). In general, the SHSY5Y cell line is less sensitive to the tested molecules than NB4 cells.

[14] = tested on: acetyl-H3K9-14, H3K27me3/2, EZH2 in NB4 cells; test: Western blot of histone marks and EZH2 in NB4 cells; format: cell-based, human
Method: The procedures were performed as described in (31,34). Primary antibodies used were: H3K27me3 (Abcam); H3K9-14ac (Millipore); H3K27ac, EZH2, PARP, TRAIL, RIP (Abcam); BID, BAX, BCL2 (Cell Signaling); BCL-XL (BD Biosciences); ERKs (Santa Cruz) and α-tubulin (Sigma) were used to normalize the total protein extracts, while H1 (Abcam) to normalize histone extracts.

Sequence of CBP (Q92793 whole entry): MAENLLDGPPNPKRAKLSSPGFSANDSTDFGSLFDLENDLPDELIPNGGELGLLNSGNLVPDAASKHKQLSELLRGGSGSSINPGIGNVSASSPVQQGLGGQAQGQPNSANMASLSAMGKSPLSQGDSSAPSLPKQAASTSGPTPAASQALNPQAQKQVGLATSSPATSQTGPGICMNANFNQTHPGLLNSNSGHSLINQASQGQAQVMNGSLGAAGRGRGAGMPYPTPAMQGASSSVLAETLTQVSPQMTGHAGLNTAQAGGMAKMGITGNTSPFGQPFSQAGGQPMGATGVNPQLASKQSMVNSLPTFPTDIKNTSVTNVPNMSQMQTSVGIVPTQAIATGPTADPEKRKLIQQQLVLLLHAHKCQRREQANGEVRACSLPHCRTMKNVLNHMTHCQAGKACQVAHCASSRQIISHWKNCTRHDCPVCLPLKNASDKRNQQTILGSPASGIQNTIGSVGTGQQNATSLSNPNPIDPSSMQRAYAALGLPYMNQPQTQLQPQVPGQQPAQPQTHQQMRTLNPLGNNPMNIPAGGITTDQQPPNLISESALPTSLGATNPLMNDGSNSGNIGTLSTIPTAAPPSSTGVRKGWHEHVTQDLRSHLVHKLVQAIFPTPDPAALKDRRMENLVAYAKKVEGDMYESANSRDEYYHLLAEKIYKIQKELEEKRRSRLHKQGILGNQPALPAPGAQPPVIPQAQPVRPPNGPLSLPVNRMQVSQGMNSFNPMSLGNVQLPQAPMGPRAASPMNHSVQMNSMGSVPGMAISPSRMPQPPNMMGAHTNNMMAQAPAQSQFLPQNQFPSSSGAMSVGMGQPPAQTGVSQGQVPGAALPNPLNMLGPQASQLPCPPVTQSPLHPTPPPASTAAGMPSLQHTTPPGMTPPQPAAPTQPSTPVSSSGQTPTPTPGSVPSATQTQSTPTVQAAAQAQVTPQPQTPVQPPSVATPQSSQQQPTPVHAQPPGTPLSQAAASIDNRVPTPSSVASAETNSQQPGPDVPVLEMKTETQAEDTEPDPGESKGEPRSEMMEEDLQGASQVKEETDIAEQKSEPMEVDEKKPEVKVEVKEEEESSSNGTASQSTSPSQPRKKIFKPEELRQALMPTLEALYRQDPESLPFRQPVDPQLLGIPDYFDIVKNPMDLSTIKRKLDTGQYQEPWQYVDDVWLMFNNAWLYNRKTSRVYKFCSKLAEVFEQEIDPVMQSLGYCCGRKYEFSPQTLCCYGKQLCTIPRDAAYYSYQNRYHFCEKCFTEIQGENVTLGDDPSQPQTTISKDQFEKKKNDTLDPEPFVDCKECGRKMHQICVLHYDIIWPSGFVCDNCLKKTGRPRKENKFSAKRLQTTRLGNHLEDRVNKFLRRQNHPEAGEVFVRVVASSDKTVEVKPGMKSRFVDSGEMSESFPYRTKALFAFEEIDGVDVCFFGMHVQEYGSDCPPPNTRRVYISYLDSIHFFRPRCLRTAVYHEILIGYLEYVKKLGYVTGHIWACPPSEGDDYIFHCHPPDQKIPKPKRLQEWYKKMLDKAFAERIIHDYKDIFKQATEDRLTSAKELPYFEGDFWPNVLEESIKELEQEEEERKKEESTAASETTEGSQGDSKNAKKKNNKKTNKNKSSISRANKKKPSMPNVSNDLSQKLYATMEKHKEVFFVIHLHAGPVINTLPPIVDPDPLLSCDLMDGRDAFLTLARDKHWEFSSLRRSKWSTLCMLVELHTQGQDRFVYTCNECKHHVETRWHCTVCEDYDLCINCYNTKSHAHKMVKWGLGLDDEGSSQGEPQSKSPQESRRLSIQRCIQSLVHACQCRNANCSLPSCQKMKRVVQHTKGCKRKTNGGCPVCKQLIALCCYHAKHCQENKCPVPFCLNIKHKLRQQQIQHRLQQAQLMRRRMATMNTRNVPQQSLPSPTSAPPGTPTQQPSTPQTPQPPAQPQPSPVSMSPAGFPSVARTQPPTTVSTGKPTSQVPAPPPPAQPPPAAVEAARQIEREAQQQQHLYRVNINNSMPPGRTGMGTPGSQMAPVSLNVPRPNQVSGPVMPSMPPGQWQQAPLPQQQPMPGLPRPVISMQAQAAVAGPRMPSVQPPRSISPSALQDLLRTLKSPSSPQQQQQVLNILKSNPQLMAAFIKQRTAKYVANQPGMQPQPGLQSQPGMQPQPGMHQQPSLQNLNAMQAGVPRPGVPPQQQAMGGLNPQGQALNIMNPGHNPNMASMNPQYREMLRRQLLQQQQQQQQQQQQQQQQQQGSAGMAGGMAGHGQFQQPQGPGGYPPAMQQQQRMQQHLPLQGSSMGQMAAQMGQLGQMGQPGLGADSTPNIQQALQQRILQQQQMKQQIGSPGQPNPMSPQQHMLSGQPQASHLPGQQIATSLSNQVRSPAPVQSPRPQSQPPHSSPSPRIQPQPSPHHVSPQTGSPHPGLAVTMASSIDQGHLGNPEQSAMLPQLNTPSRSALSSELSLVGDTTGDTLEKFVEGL
Sequence of GCN5 (Q92830 whole entry): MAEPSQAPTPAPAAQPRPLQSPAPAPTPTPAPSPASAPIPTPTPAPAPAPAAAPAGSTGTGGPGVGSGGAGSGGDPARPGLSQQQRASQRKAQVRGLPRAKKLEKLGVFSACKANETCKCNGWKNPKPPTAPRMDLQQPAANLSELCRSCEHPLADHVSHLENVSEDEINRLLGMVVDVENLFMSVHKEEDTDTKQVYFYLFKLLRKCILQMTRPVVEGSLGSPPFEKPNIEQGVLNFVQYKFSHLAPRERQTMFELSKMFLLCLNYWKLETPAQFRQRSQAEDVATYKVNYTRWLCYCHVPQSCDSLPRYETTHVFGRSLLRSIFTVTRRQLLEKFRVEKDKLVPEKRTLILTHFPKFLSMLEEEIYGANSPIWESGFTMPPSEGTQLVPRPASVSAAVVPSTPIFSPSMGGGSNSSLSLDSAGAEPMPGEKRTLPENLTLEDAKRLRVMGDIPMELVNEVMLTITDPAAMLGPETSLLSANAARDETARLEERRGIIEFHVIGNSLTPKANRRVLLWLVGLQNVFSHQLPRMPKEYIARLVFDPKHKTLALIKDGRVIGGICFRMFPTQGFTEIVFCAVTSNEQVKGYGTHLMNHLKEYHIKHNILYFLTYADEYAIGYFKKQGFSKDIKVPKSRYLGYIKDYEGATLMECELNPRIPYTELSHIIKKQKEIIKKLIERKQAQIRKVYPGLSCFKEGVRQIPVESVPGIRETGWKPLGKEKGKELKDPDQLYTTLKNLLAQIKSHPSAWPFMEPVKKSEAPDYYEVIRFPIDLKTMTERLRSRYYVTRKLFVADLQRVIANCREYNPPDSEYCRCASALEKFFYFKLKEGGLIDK
Sequence of pCAF (Q92831 whole entry): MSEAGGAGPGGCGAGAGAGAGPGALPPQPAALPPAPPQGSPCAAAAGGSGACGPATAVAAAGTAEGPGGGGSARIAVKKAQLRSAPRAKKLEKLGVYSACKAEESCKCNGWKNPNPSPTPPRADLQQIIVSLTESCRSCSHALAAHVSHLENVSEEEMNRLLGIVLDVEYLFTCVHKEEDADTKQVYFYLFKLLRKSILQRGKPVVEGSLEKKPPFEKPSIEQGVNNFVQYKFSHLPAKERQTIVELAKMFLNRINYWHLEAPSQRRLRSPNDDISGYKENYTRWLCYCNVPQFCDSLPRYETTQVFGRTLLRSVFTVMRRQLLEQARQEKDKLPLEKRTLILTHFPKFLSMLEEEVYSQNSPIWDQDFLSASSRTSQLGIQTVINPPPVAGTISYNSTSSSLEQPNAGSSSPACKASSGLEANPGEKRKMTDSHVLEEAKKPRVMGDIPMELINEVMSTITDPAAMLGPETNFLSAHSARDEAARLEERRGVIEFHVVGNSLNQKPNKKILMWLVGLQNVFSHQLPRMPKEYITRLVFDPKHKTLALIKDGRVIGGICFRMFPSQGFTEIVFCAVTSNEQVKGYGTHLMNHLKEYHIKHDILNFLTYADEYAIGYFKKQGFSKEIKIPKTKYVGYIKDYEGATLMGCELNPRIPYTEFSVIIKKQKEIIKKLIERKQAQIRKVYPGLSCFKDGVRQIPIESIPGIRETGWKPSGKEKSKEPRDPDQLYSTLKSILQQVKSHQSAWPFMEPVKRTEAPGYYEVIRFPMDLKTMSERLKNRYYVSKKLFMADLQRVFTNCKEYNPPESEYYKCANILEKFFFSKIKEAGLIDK
Sequence of KAT5 (Q92993 whole entry): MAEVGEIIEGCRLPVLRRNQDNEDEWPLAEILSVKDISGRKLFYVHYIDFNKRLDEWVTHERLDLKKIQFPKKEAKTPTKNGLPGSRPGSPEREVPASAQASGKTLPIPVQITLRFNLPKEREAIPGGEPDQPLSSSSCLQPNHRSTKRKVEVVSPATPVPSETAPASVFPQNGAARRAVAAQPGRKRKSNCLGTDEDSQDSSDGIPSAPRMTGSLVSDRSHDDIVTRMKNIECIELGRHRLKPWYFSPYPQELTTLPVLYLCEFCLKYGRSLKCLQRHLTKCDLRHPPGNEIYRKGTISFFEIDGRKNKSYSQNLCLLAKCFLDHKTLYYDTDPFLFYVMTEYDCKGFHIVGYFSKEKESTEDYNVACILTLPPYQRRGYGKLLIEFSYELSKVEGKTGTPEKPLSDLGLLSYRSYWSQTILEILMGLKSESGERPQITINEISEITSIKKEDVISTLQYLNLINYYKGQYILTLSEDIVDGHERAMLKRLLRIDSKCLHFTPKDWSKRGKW
T1 sequence (P08684 whole entry): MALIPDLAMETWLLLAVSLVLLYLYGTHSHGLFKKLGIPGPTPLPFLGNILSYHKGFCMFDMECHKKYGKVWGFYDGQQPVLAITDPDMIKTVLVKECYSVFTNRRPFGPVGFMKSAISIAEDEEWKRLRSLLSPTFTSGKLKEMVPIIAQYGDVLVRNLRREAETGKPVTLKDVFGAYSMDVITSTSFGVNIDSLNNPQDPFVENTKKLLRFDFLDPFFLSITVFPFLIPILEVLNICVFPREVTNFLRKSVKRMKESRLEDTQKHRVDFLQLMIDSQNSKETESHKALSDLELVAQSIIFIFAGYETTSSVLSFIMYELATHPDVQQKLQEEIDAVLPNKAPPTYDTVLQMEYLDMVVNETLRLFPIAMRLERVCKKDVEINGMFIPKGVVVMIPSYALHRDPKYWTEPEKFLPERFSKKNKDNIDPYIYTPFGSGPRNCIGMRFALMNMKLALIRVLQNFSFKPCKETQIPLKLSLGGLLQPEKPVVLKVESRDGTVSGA

| Compound | cytotoxicity at 3 µM [7] [%] | cytotoxicity at 3 µM [13] [%] | further results |
| --- | --- | --- | --- |
| CN(C)CC[C@H](CSc1ccccc1)Nc1ccc(S(=O)(=O)NC(=O)c2ccc(N3CCN(Cc4ccccc4-c4ccc(Cl)cc4)CC3)cc2)cc1[N+](=O)[O-] [ABT-737] |  |  | cell death with ABT-737 plus MC2884 [1]: up to 60% |
| CC1=C(/C=C/C(C)=C/C=C/C(C)=C/C(=O)O)C(C)(C)CCC1 [ATRA, All Trans Retinoic Acid] |  |  | apoptosis in ex vivo APL-R blasts [2]: did not undergo efficient apoptosis |
| CCCCCCCCCCCCCCCc1cccc(O)c1C(=O)O [Anacardic Acid] |  |  | IC50 [3]: 38.6 µM; IC50 [4]: 38.8 µM |
| CC1=NN(c2ccc(C(=O)O)cc2)C(=O)/C1=C\c1ccc(-c2cc(C)c(C)cc2[N+](=O)[O-])o1 [C646] |  |  | IC50 [5]: 0.0787 µM; IC50 [6]: 20.4 µM |
| O=C1/C(=C/c2cccc(Br)c2)CN(Cc2ccccc2)C/C1=C\c1cccc(Br)c1 [MC2884, 1-benzyl-3,5-bis(3-bromobenzylidene)piperidin-4-one] | 52.1 |  | time for total degradation in culture medium [8]: 72 h; average half-life [9]: 4.58 h; AUC ([9]; mouse): 13300 ng·h/mL; bioavailability ([10]; male, CD1, mouse, dose route IP, time frame 0-inf): 140%; AUC ([10]; mouse, ip, male CD1 mice): 18400 ng·h/mL; CYP3A4 % inhibition [11]: 45%; cytotoxicity on non-cancer cells [12]: low cytotoxicity |
| O=C(/C=C/c1ccc(Br)cc1)/C=C/c1ccc(Br)cc1 [MC2886, (1E,4E)-1,5-bis(4-bromophenyl)penta-1,4-dien-3-one] | 0.56 | 1.2 |  |
| O=C1/C(=C/c2ccccc2Br)CN(Cc2ccccc2)C/C1=C\c1ccccc1Br [MC2908, 1-benzyl-3,5-bis(2-bromobenzylidene)piperidin-4-one] | 30.3 | 9.2 |  |
| O=C1/C(=C/c2ccc(Br)cc2)CN(Cc2ccccc2)C/C1=C\c1ccc(Br)cc1 [MC2909, 1-benzyl-3,5-bis(4-bromobenzylidene)piperidin-4-one] | 8.8 | 4.7 | cell death induction in SHSY5Y cells, in words, relative to MC2884 [13]: less potent or not active; modulation of histone acetylation and EZH2 deregulation [14]: unable to modulate |
| O=C1/C(=C/c2cc(Br)cc(Br)c2)CN(Cc2ccccc2)C/C1=C\c1cc(Br)cc(Br)c1 [MC2910, 1-benzyl-3,5-bis(3,5-dibromobenzylidene)piperidin-4-one] | 4.2 | 2.4 |  |
| O=C1/C(=C/c2cccc(Br)c2)CCC/C1=C\c1cccc(Br)c1 [MC2911, 2,6-bis((E)-3-bromobenzylidene)cyclohexan-1-one] | 0.76 | 0.8 |  |
| O=C1/C(=C/c2cccc(Br)c2)COC/C1=C\c1cccc(Br)c1 [MC2912, 3,5-bis(3-bromobenzylidene)dihydro-2H-pyran-4(3H)-one] | 4.1 | 1 |  |
| O=C1/C(=C/c2cccc(Br)c2)CSC/C1=C\c1cccc(Br)c1 [MC2913, 3,5-bis(3-bromobenzylidene)dihydro-2H-thiopyran-4(3H)-one] | 52.7 | 23.9 |  |
| CN1C/C(=C\c2cccc(Br)c2)C(=O)/C(=C/c2cccc(Br)c2)C1 [MC2914, 3,5-bis(3-bromobenzylidene)-1-methylpiperidin-4-one] | 36 | 9 | % Cell death NB4 cells [7]: 36.0%; cell death induction in SHSY5Y cells, in words, relative to MC2884 [13]: reduced the potency |
| O=C1/C(=C/c2cccc(Br)c2)CN(C(=O)c2ccccc2)C/C1=C\c1cccc(Br)c1 [MC3146, 1-benzoyl-3,5-bis(3-bromobenzylidene)piperidin-4-one] | 13.2 | 5.6 |  |
| O=C1/C(=C/c2cccc(Br)c2)CN(C(=O)CCc2ccccc2)C/C1=C\c1cccc(Br)c1 [MC3187, 3,5-bis(3-bromobenzylidene)-1-(3-phenylpropanoyl) piperidin-4-one] | 28.9 | 19.9 | cell death induction in SHSY5Y cells, in words, relative to MC2884 [13]: slightly more potent than MC2884 |
| O=C1/C(=C/c2cccc(Br)c2)CN(CC(=O)c2ccccc2)C/C1=C\c1cccc(Br)c1 [MC3207, 3,5-bis(3-bromobenzylidene)-1-(2-oxo-2-phenylethyl)piperidin-4-one] | 38 | 7 | % Cell death NB4 cells [7]: 38.0% |
| O=C1/C(=C/c2cccc(Br)c2)CN(CCc2ccccc2)C/C1=C\c1cccc(Br)c1 [MC3269, 3,5-bis(3-bromobenzylidene)-1-phenethylpiperidin-4-one] | 62.5 | 19.2 | cell death induction in SHSY5Y cells, in words, relative to MC2884 [13]: same potency as MC2884 |
| O=C1/C(=C/c2cccc(Br)c2)CN(CCCc2ccccc2)C/C1=C\c1cccc(Br)c1 [MC3272, 3,5-bis(3-bromobenzyliden)-1-(3-phenylpropyl) piperidin-4-one] | 29.2 | 7 |  |
| O=C1/C(=C/c2ccc(O)cc2Br)CN(Cc2ccccc2)C/C1=C\c1ccc(O)cc1Br [MC3395, 1-benzyl-3,5-bis((E)-2-bromo-4-hydroxybenzylidene)piperidin-4-one] | 0.53 | 1 |  |
